Data reported in patent US6838468B2, “4-(phenyl-piperdin-4-ylidene methyl)-benzamide derivatives and their use for the treatment of pain, anxiety or gastrointestinal disorders” (AstraZeneca AB, priority 2001, dated 2005).

How the values were obtained:
[1] = target: T1, delta receptors, rat brain membranes (Rattus norvegicus, UniProt P33533); experiment: GTP[γ]35S binding functional assay, rat brain membranes; format: biochemical; details: GTPγ35S binding, maximal stimulated binding with 3 μM SNC-80
T1 construct: Rat brain membranes are thawed at 37° C; from tissue; host or cells: rat brain membranes
Description: (§1) • A. Human 293S cells expressing cloned human μ, δ, and κ receptors and neomycin resistance were grown in suspension at 37° C. and 5% CO2 in shaker flasks containing calcium-free DMEM10% FBS, 5% BCS, 0.1% Pluronic F-68, and 600 μg/ml geneticin. • B. Mouse and rat brains were weighed and rinsed in ice-cold PBS (containing 2.5 mM EDTA, pH 7.4). The brains were homogenized with a polytron for 15 sec (mouse) or 30 sec (rat) in ice-cold lysis buffer (50 mM Tris, pH 7.0, 2.5 mM EDTA, with phenylmethylsulfonyl fluoride added just prior use to […] from a 0.5M stock in DMSO:ethanol). Membrane Preparation
(§2) The agonist activity of the compounds is measured by determining the degree to which the compounds receptor complex activates the binding of GTP to G-proteins to which the receptors are coupled. In the GTP binding assay, GTP[γ]^35S is combined with test compounds and membranes from HEK-293S cells expressing the cloned human opioid receptors or from homogenised rat and mouse brain. Agonists stimulate GTP[γ]^35S binding in these membranes. The EC50 and Emax values of compounds are determined from dose-response curves. Right shifts of the dose response curve by the delta antagonist naltrindole are performed to verify that agonist activity is mediated through delta receptors.
Rat brain membranes are thawed at 37° C., passed 3 times through a 25-gauge blunt-end needle and diluted in the GTPγS binding (50 mM Hepes, 20 mM NaOH, 100 mM NaCl, 1 mM EDTA, 5 mM MgCl2, pH 7.4, Add fresh: 1 mM DTT, 0.1% BSA). 120 μM GDP final is added membranes dilutions. […] The basal and maximal stimulated binding are determined in absence and presence of 3 μM SNC-80

cloned human δ receptor [2] = target: T2, cloned human δ receptor (Homo sapiens, UniProt P41143); experiment: Binding assay, membranes of human 293S cells expressing cloned human δ receptor (HDELTA); details: radioligand displacement
T2 construct: expressed in transfected cells; host or cells: human 293S (HEK-293S) cells, geneticin-selected

[3] = target: T3, delta receptors, mouse brain membranes (Mus musculus, UniProt P32300); experiment: GTP[γ]35S binding functional assay, mouse brain membranes; format: biochemical
T3 construct: from tissue; host or cells: mouse brain membranes
Description: as §1, §2

cloned human δ receptor [4] = target: T2, cloned human δ receptor; experiment: GTP[γ]35S binding functional assay, HEK-293S membranes expressing cloned human δ receptor (HDELTA); format: biochemical
Description: as §1
Cells were pelleted and resuspended in lysis buffer (50 mM Tris, pH 7.0, 2.5 mM EDTA, with PMSF added just prior to use to 0.1 mM from a 0.1 M stock in ethanol), incubated on ice for 15 min, then homogenized with a polytron for 30 sec. The suspension was spun at 1000 g (max) for 10 min at 4° C. The supernatant was saved on ice and the pellets resuspended and spun as before. The supernatants from both spins were combined and spun at 46,000 g(max) for 30 min. The pellets were resuspended in cold Tris buffer (50 mM Tris/Cl, pH 7.0) and spun again. The final pellets were resuspended in membrane buffer (50 mM Tris, 0.32 M sucrose, pH 7.0). Aliquots (1 ml) in polypropylene tubes were frozen in dry ice/ethanol and stored at −70° C. until use. The protein concentrations were determined by a modified Lowry assay with sodium dodecyl sulfate.
as §2

T3 sequence (P32300 whole entry): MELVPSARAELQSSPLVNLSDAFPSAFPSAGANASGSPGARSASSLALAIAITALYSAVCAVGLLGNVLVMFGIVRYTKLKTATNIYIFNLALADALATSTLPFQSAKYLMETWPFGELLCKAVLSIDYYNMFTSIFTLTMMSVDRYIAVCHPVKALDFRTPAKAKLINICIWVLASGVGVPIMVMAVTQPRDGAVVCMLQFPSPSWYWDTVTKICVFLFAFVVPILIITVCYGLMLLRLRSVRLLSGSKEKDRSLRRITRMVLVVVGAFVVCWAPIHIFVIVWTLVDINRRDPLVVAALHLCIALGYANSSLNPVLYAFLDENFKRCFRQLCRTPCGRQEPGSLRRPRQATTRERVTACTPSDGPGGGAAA
T1 sequence (P33533 whole entry): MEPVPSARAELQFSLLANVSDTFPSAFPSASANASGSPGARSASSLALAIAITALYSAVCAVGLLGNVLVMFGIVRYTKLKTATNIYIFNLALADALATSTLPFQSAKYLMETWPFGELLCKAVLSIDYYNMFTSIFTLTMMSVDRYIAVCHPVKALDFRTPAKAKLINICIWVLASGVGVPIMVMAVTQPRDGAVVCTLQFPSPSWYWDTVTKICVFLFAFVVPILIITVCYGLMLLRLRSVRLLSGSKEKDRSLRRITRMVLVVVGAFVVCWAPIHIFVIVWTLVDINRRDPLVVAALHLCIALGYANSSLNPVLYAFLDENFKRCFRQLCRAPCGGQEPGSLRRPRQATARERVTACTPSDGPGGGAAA
T2 sequence (P41143 whole entry): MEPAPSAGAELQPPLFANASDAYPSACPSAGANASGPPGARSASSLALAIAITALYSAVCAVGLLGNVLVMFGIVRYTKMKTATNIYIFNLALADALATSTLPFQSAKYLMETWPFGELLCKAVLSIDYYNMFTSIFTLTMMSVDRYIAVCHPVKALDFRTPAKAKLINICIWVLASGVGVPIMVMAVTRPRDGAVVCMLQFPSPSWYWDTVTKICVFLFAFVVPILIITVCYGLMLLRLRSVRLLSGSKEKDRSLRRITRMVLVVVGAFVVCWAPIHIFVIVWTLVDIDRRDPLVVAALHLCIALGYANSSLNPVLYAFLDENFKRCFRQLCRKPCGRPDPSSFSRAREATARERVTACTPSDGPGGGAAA

Row | SMILES | Emax [1] [%] | IC50 (cloned human δ receptor [2]) [nM] | Emax [3] [%] | Emax (cloned human δ receptor [4]) [%]
1 | CC(C)N(C(=O)c1ccc(C(=C2CCN(Cc3ccccc3)CC2)c2cccc3cccnc23)cc1)C(C)C [Example 1, 4-[1-(1-Benzyl-piperidin-4-ylidene)-1-quinolin-8-yl-methyl]-N,N-diisopropyl-benzamide] | 97 to 144 | 0.78 to 5 | 100 to 151 | 96 to 102
2 | CC(C)N(C(=O)c1ccc(C(=C2CCN(Cc3ccccn3)CC2)c2cccc3cccnc23)cc1)C(C)C [Example 2, N,N-Diisopropyl-4-[1-(1-pyridin-2-ylmethyl-piperidin-4-ylidene)-1-quinolin-8-yl-methyl]-benzamide] | 97 to 144 | 0.78 to 5 | 100 to 151 | 96 to 102
3 | CC(C)N(C(=O)c1ccc(C(=C2CCN(Cc3ccncc3)CC2)c2cccc3cccnc23)cc1)C(C)C [Example 3, N,N-Diisopropyl-4-[1-(1-pyridin-4-ylmethyl-piperidin-4-ylidene)-1-quinolin-8-yl-methyl]-benzamide] | 97 to 144 | 0.78 to 5 | 100 to 151 | 96 to 102
4 | CC(C)N(C(=O)c1ccc(C(=C2CCN(Cc3cccs3)CC2)c2cccc3cccnc23)cc1)C(C)C [Example 4, N,N-Diisopropyl-4-[1-quinolin-8-yl-1-(1-thiophen-2-ylmethyl-piperidin-4-ylidene)-methyl]-benzamide] | 97 to 144 | 0.78 to 5 | 100 to 151 | 96 to 102
5 | CC(C)N(C(=O)c1ccc(C(=C2CCN(Cc3ccoc3)CC2)c2cccc3cccnc23)cc1)C(C)C [Example 6, N,N-Diisopropyl-4-[1-quinolin-8-yl-1-(1-furan-3-ylmethyl-piperidin-4-ylidene)-methyl]-benzamide] | 97 to 144 | 0.78 to 5 | 100 to 151 | 96 to 102
6 | CC(C)N(C(=O)c1ccc(C(=C2CCN(Cc3ccco3)CC2)c2cccc3cccnc23)cc1)C(C)C [Example 7, N,N-Diisopropyl-4-[1-quinolin-8-yl-1-(1-furan-2-ylmethyl-piperidin-4-ylidene)-methyl]-benzamide] | 97 to 144 | 0.78 to 5 | 100 to 151 | 96 to 102
7 | COc1ccc(CN2CCC(=C(c3ccc(C(=O)N(C(C)C)C(C)C)cc3)c3cccc4cccnc34)CC2)cc1 [Example 8, N,N-Diisopropyl-4-{1-[1-(4-methoxy-benzyl)-piperidin-4-ylidene]-1-quinolin-8-yl-methyl}-benzamide] | 97 to 144 | 0.78 to 5 | 100 to 151 | 96 to 102
8 | CC(C)N(C(=O)c1ccc(C(=C2CCN(Cc3nccs3)CC2)c2cccc3cccnc23)cc1)C(C)C [Example 9, N,N-Diisopropyl-4-[1-quinolin-8-yl-1-(1-thiazol-2-ylmethyl-piperidin-4-ylidene)-methyl]-benzamide] | 97 to 144 | 0.78 to 5 | 100 to 151 | 96 to 102
9 | CC(C)N(C(=O)c1ccc(C(=C2CCN(Cc3ncc[nH]3)CC2)c2cccc3cccnc23)cc1)C(C)C [Example 10, 4-{1-[1-(1H-Imidazol-2-ylmethyl)-piperidin-4-ylidene]-1-quinolin-8-yl-methyl]-N,N-diisopropylbenzamide] | 97 to 144 | 0.78 to 5 | 100 to 151 | 96 to 102
10 | CC(C)N(C(=O)c1ccc(C(=C2CCN(Cc3ccc(Br)cc3)CC2)c2cccc3cccnc23)cc1)C(C)C [Example 11] | 97 to 144 | 0.78 to 5 | 100 to 151 | 96 to 102
